From PubChem BioAssay AID2053 (NMMLSC, 2009)

These molecules were tested against GTPase HRas (Homo sapiens) (UniProt P01112) (assay: blockade of Bodipy-GTP loading onto wild-type Ras – biochemical, oxadiazole analogs, multiplex bead flow cytometry, SAR follow-up (AID 2053)). Conditions: GST-Ras beads, Bodipy-FL-GTP binding, Ki calculated from EC50.
Chain of GTPase HRas (Homo sapiens) (P01112 whole entry, looked up): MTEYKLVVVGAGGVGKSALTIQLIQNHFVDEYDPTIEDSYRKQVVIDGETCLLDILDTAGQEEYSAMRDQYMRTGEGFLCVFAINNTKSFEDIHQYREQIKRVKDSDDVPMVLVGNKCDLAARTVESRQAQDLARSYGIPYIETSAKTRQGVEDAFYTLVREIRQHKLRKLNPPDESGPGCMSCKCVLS

Point of comparison: `COc1cccc(-c2noc(CCC(=O)N3CCN(c4cc(C)ccc4C)CC3)n2)c1`, Ki 0.23 µM. Against it:
- COc1ccc(-c2noc(CCC(=O)N3CCN(c4ccccc4Cl)CC3)n2)cc1 — within 1.5-fold, 0.29 µM
- Cc1ccc(C)c(N2CCN(C(=O)CCc3nc(-c4ccccc4)no3)CC2)c1 — 1.6-fold lower, 0.14 µM
- Cc1ccc(C)c(N2CCN(C(=O)CCc3nc(-c4ccc(Br)cc4)no3)CC2)c1 — within 1.5-fold, 0.29 µM
- COc1ccc(-c2noc(CCC(=O)N3CCN(c4ccccc4F)CC3)n2)cc1 — 23-fold lower, 0.01 µM
- COc1ccc(-c2noc(CCC(=O)N3CCN(c4cc(C)ccc4C)CC3)n2)cc1 — within 1.5-fold, 0.27 µM
- Cc1ccc(C)c(N2CCN(C(=O)CCc3nc(-c4ccccc4Br)no3)CC2)c1 — 23-fold lower, 0.01 µM
